From patent US9393271B2, “GHRH agonists for islet cell transplantation and function and the treatment of diabetes” (UNIVERSITY OF MIAMI, priority 2012, dated 2016)
Non-standard residues stand in square brackets, D forms with d. Residues, ends and D or L forms follow the SMILES beside them. ξ: configuration not given here. *: point of attachment. Phe(F5) = N[C@@H](Cc1c(F)c(F)c(F)c(F)c1F)C(=O)O; Desaminotyrosyl = O=C(CCc1ccc(O)cc1)*; NMeY = CN[C@@H](Cc1ccc(O)cc1)C(=O)O; Nle = CCCC[C@H](N)C(=O)O; Orn = NCCC[C@H](N)C(=O)O; Abu = CC[C@H](N)C(=O)O; GABA = NCCCC(=O)O; ξA = CC(N)C(=O)O

Target: T1, GHRH receptor (human pituitary membrane homogenates) (Homo sapiens, UniProt Q02643)
T1 sequence (Q02643 23-423): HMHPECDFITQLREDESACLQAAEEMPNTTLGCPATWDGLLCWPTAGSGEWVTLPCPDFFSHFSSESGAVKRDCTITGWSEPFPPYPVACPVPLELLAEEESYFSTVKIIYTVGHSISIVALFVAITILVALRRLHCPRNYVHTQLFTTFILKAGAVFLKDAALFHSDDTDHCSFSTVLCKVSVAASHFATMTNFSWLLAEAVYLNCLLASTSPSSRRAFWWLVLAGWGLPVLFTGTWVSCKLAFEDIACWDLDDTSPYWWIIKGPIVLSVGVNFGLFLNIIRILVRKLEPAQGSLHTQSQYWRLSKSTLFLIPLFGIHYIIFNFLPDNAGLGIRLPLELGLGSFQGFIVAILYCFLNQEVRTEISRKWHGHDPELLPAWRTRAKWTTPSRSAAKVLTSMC
Experiment: GHRH receptor binding, ligand competition with 125I-labeled JV-1-42 (Table 7)
Set-up: Normal human pituitaries were purchased from the National Hormone and Peptide Program; tissue National Hormone and Peptide Program (A. F. Parlow, Harbor-UCLA Medical Center, Torrance, Calif.); host or cells: normal human pituitary, membrane fraction / homogenate
Settings: JI-38 = 1

| SMILES | Relative affinitiy (Binding potency) vs JI-38 |
| --- | --- |
| CCCC[C@H](NC(=O)[C@@H](NC(=O)[C@H](CC(=O)O)NC(=O)[C@H](CCC(N)=O)NC(=O)[C@H](CC(C)C)NC(=O)[C@H](CC(C)C)NC(=O)[C@H](CCCN)NC(=O)[C@H](CCCNC(=N)N)NC(=O)[C@H](C)NC(=O)[C@H](CO)NC(=O)[C@H](CC(C)C)NC(=O)[C@H](CCC(N)=O)NC(=O)[C@H](CC)NC(=O)[C@H](CC(C)C)NC(=O)[C@@H](NC(=O)[C@H](CCCN)NC(=O)[C@H](CCCNC(=N)N)NC(=O)[C@H](Cc1ccc(O)cc1)NC(=O)[C@H](CO)NC(=O)[C@H](CCC(N)=O)NC(=O)[C@@H](NC(=O)[C@H](Cc1ccccc1)NC(=O)[C@@H](NC(=O)[C@H](C)NC(=O)[C@H](CC(=O)O)NC(=O)[C@H](C)NC(=O)CCc1ccc(O)cc1)[C@@H](C)CC)[C@@H](C)O)C(C)C)[C@@H](C)CC)C(=O)N[C@@H](CC(=O)O)C(=O)N[C@@H](CCCNC(=N)N)C(=O)NC [Peptide P-27407, [Dat^1, Gln^8, Orn^12, Abu^15, Orn^21, Nle^27, Asp^28]hGHRH(1-29)NH—CH3] (Desaminotyrosyl-ADAIFTQSYR[Orn]VL[Abu]QLSAR[Orn]LLQDI[Nle]DR-NHMe) | 1.45 |
| CCCC[C@H](NC(=O)[C@@H](NC(=O)[C@H](CC(=O)O)NC(=O)[C@H](CCC(N)=O)NC(=O)[C@H](CC(C)C)NC(=O)[C@H](CC(C)C)NC(=O)[C@H](CCCN)NC(=O)[C@H](CCCNC(=N)N)NC(=O)[C@H](C)NC(=O)[C@H](CO)NC(=O)[C@H](CC(C)C)NC(=O)[C@H](CCC(N)=O)NC(=O)[C@H](CC)NC(=O)[C@H](CC(C)C)NC(=O)[C@@H](NC(=O)[C@H](CCCN)NC(=O)[C@H](CCCNC(=N)N)NC(=O)[C@H](Cc1ccc(O)cc1)NC(=O)[C@H](CO)NC(=O)[C@H](CCC(N)=O)NC(=O)[C@@H](NC(=O)[C@H](Cc1ccccc1)NC(=O)[C@@H](NC(=O)[C@H](C)NC(=O)[C@H](CC(=O)O)NC(=O)[C@@H](C)NC(=O)CCc1ccc(O)cc1)[C@@H](C)CC)[C@@H](C)O)C(C)C)[C@@H](C)CC)C(=O)N[C@@H](CC(=O)O)C(=O)N[C@@H](CCCNC(=N)N)C(=O)NC [Peptide P-27408, [Dat^1, D-Ala^2, Gln^8, Orn^12, Abu^15, Orn^21, Nle^27, Asp^28]hGHRH(1-30)NH—CH3] (Desaminotyrosyl-[dA]DAIFTQSYR[Orn]VL[Abu]QLSAR[Orn]LLQDI[Nle]DR-NHMe) | 7.91 |
| CCCC[C@H](NC(=O)[C@@H](NC(=O)[C@H](CC(=O)O)NC(=O)[C@H](CCC(N)=O)NC(=O)[C@H](CC(C)C)NC(=O)[C@H](CC(C)C)NC(=O)[C@H](CCCN)NC(=O)[C@H](CCCNC(=N)N)NC(=O)[C@H](C)NC(=O)[C@H](CO)NC(=O)[C@H](CC(C)C)NC(=O)[C@H](CCC(N)=O)NC(=O)[C@H](CC)NC(=O)[C@H](CC(C)C)NC(=O)[C@@H](NC(=O)[C@H](CCCN)NC(=O)[C@H](CCCNC(=N)N)NC(=O)[C@H](Cc1ccc(O)cc1)NC(=O)[C@H](CO)NC(=O)[C@@H](NC(=O)[C@@H](NC(=O)[C@H](Cc1ccccc1)NC(=O)[C@@H](NC(=O)[C@H](C)NC(=O)[C@H](CC(=O)O)NC(=O)[C@@H](C)NC(=O)[C@H](Cc1ccc(O)cc1)NC)[C@@H](C)CC)[C@@H](C)O)[C@@H](C)O)C(C)C)[C@@H](C)CC)C(=O)N[C@@H](CC(=O)O)C(=O)N[C@@H](CCCNC(=N)N)C(=O)NC [Peptide P-27410, [N—Me-Tyr^1, D-Ala^2, Thr^8, Orn^12, Abu^15, Orn^21, Nle^27, Asp^28]hGHRH(1-29)NH—CH3] (H-[NMeY][dA]DAIFTTSYR[Orn]VL[Abu]QLSAR[Orn]LLQDI[Nle]DR-NHMe) | 5.24 |
| CCCC[C@H](NC(=O)[C@@H](NC(=O)[C@H](CC(=O)O)NC(=O)[C@H](CCC(N)=O)NC(=O)[C@H](CC(C)C)NC(=O)[C@H](CC(C)C)NC(=O)[C@H](CCCN)NC(=O)[C@H](Cc1c[nH]cn1)NC(=O)[C@H](C)NC(=O)[C@H](CO)NC(=O)[C@H](CC(C)C)NC(=O)[C@H](CCC(N)=O)NC(=O)[C@H](CC)NC(=O)[C@H](CC(C)C)NC(=O)[C@@H](NC(=O)[C@H](CCCN)NC(=O)[C@H](Cc1c[nH]cn1)NC(=O)[C@H](Cc1ccc(O)cc1)NC(=O)[C@H](CO)NC(=O)[C@H](CCC(N)=O)NC(=O)[C@@H](NC(=O)[C@H](Cc1ccccc1)NC(=O)[C@@H](NC(=O)[C@H](C)NC(=O)[C@H](CC(=O)O)NC(=O)C(C)NC(=O)CCc1ccc(O)cc1)[C@@H](C)CC)[C@@H](C)O)C(C)C)[C@@H](C)CC)C(=O)N[C@@H](CC(=O)O)C(=O)N[C@@H](CCCNC(=N)N)C(=O)NC (stereo partly drawn) [Peptide P-27413, [Dat^1, Gln^8, His^11, Orn^12, Abu^15, His^20, Orn^21, Nle^27, Asp^28]hGHRH(1-29)NH—CH3] (Desaminotyrosyl-[ξA]DAIFTQSYH[Orn]VL[Abu]QLSAH[Orn]LLQDI[Nle]DR-NHMe) | 1.78 |
| CCCC[C@H](NC(=O)[C@@H](NC(=O)[C@H](CC(=O)O)NC(=O)[C@H](CCC(N)=O)NC(=O)[C@H](CC(C)C)NC(=O)[C@H](CC(C)C)NC(=O)[C@H](CCCN)NC(=O)[C@H](CCCNC(=N)N)NC(=O)[C@H](C)NC(=O)[C@H](CO)NC(=O)[C@H](CC(C)C)NC(=O)[C@H](CCC(N)=O)NC(=O)[C@H](CC)NC(=O)[C@H](CC(C)C)NC(=O)[C@@H](NC(=O)[C@H](CCCN)NC(=O)[C@H](CCCNC(=N)N)NC(=O)[C@H](Cc1ccc(O)cc1)NC(=O)[C@H](CO)NC(=O)[C@H](CC(N)=O)NC(=O)[C@@H](NC(=O)[C@H](Cc1c(F)c(F)c(F)c(F)c1F)NC(=O)[C@@H](NC(=O)[C@H](C)NC(=O)[C@H](CC(=O)O)NC(=O)[C@@H](C)NC(=O)[C@H](Cc1ccc(O)cc1)NC)[C@@H](C)CC)[C@@H](C)O)C(C)C)[C@@H](C)CC)C(=O)N[C@@H](CO)C(=O)N[C@@H](CCCNC(=N)N)C(=O)NCCCC(=O)NC [Peptide P-27414, [N—Me-Tyr^1, D-Ala^2, Fpa5^6, Orn^12, Abu^15, Orn^21, Nle^27, Gab^30]hGHRH(1-30)NH—CH3] (H-[NMeY][dA]DAI[Phe(F5)]TNSYR[Orn]VL[Abu]QLSAR[Orn]LLQDI[Nle]SR[GABA]-NHMe) | 2.79 |
| CCCC[C@H](NC(=O)[C@@H](NC(=O)[C@H](CC(=O)O)NC(=O)[C@H](CCC(N)=O)NC(=O)[C@H](CC(C)C)NC(=O)[C@H](CC(C)C)NC(=O)[C@H](CCCN)NC(=O)[C@H](CCCNC(=N)N)NC(=O)[C@H](C)NC(=O)[C@H](CO)NC(=O)[C@H](CC(C)C)NC(=O)[C@H](CCC(N)=O)NC(=O)[C@H](CC)NC(=O)[C@H](CC(C)C)NC(=O)[C@@H](NC(=O)[C@H](CCCN)NC(=O)[C@H](CCCNC(=N)N)NC(=O)[C@H](Cc1ccc(O)cc1)NC(=O)[C@H](CO)NC(=O)[C@H](CC(N)=O)NC(=O)[C@@H](NC(=O)[C@H](Cc1ccccc1)NC(=O)[C@@H](NC(=O)[C@H](C)NC(=O)[C@H](CC(=O)O)NC(=O)[C@H](C)NC(=O)[C@H](Cc1ccc(O)cc1)NC)[C@@H](C)CC)[C@@H](C)O)C(C)C)[C@@H](C)CC)C(=O)N[C@@H](CO)C(=O)N[C@@H](CCCNC(=N)N)C(=O)NCCCC(=O)NC [Peptide P-27415, [N—Me-Tyr^1, Orn^12, Abu^15, Orn^21, Nle^27, Gab^30]hGHRH(1-30)NH—CH3] (H-[NMeY]ADAIFTNSYR[Orn]VL[Abu]QLSAR[Orn]LLQDI[Nle]SR[GABA]-NHMe) | 1.44 |
